According to patent US20170166516A1, “STABLE POLYMORPH FORM B OF TAPENTADOL HYDROCHLORIDE” (priority 2014, published 2017):
Where a name gives a salt, the structure may show the parent alone.

What was measured:
[1] = Stability test of polymorphic Form B on storage, followed by PXRD; type: physicochemical; conditions: for change in amount of polymorphic Form A in Form B on storage (PXRD): 2 month storage, ambient temperature, sample contains traces of Form A, Hydrochloride
Description: In FIG. 1 the PXRD pattern of a stability sample experiment 1 are shown as well as PXRD pattern of Tapentadol hydrochloride in polymorphic crystal structure A and in polymorphic crystal structure B. The upper most pattern results from a sample (experiment 1) after a 4 month stability test at 27° C. and 42% RH (relative humidity). The second of top pattern results from the initial sample prior to the stability testing. […] The second last pattern represents the mono-crystal structure of pure Tapentadol Hydrochloride in polymorphic crystal Form B. The last pattern represents the mono-crystal structure of pure Tapentadol Hydrochloride in polymorphic crystal Form A.
For Powder X-Ray Diffraction (PXRD) the samples were placed onto a Si-wafer (Bragg-Brentano) or into a standard glass capillary (Ø=0.7 mm) (Example 2). The measurements were performed at room temperature with a D8 Bruker Advance Diffractometer (Cu-Kα1=1.54059 Å, Johansson primary beam monochromator, position sensitive detector) in transmission mode with rotation of the sample.

[2] = cited from earlier work; for stability of the crystalline form: ambient conditions, as disclosed in EP 1 612 203 A1, hydrochloride

## CC[C@@H](c1cccc(O)c1)[C@@H](C)CN(C)C [experiment 1, Tapentadol Hydrochloride]
[1]; 4 month stability test at 27° C. and 42% RH
  transformation of polymorphic crystal Form B to Form A (PXRD pattern after stability test): does not show any tendency to disintegrate or to transform to polymorphic crystal Form A
[1]; several months of storage under ambient conditions, no seeds of Form A
  transformation of Form B to polymorph A on storage (PXRD): no transformation to polymorph A

## CC[C@@H](c1cccc(O)c1)[C@@H](C)CN(C)C [Form A, Tapentadol hydrochloride]
[2]
  stability of the crystalline form: stable under ambient conditions

## CC[C@@H](c1cccc(O)c1)[C@@H](C)CN(C)C [Example 3, Tapentadol Hydrochloride]
[1]
  change in amount of polymorphic Form A in Form B on storage (PXRD): increase of Form A in Form B was observed
[1]; listed as experimental polymorphic Form B
  change in amount of polymorphic Form A in Form B on storage (PXRD): amount of polymorphic Form A obviously increased

## CC[C@@H](c1cccc(O)c1)[C@@H](C)CN(C)C [stable polymorph B, Tapentadol hydrochloride]
[2]; ambient temperatures, stabilised by low alkyl carboxylic acids or esters added during crystallization, WO 2013 111161 A1
  duration of stability of polymorphic Form B: several months

## CC[C@@H](c1cccc(O)c1)[C@@H](C)CN(C)C [Form B, Tapentadol hydrochloride]
[2]
  stability of the crystalline form: meta-stable only
